Data from EPA's CvTdb concentration-time database.

What was measured:
[1] = test system: Rat; assay: concentration in plasma after dosing; settings: 0.25 h; dosed: 2-Hydroxy-4-methoxybenzophenone; 500 mg/kg; oral; Female; F344
[2] = test system: Mouse; assay: concentration in plasma after dosing; settings: 2 h; dosed: 2-Hydroxy-4-methoxybenzophenone; 250 mg/kg; oral; Male; B6C3F1
[3] = test system: Mouse; assay: concentration in plasma after dosing; settings: 2 h; dosed: 2-Hydroxy-4-methoxybenzophenone; 50 mg/kg; iv; Male; B6C3F1
[4] = test system: Mouse; assay: concentration in plasma after dosing; settings: 10 min; dosed: 2-Hydroxy-4-methoxybenzophenone; 250 mg/kg; oral; Male; B6C3F1
[5] = test system: Mouse; assay: concentration in plasma after dosing; settings: 10 min; dosed: 2-Hydroxy-4-methoxybenzophenone; 250 mg/kg; oral; Female; B6C3F1
[6] = test system: Rat; assay: concentration in plasma after dosing; settings: dosed: 2-Hydroxy-4-methoxybenzophenone, 500 mg/kg, oral, Female, F344
[7] = test system: Mouse; assay: concentration in plasma after dosing; settings: B6C3F1
[8] = test system: Rat; assay: concentration in plasma after dosing; settings: dosed: 2,4-Dichlorophenoxyacetic acid, 2.0 mg/kg, iv, Male, Sprague-Dawley
[9] = test system: Rat; assay: concentration in brain after dosing; settings: 5 min; dosed: alpha-Thujone; 50 mg/kg; oral; Female; Harlan Sprague Dawley
[10] = test system: Rat; assay: concentration in brain after dosing; settings: 1.5 h; dosed: alpha-Thujone; 50 mg/kg; oral; Female; Harlan Sprague Dawley
[11] = test system: Rat; assay: concentration in plasma after dosing; settings: 12 h; dosed: alpha-Thujone; 50 mg/kg; oral; Female; Harlan Sprague Dawley
[12] = test system: Rat; assay: concentration in brain after dosing; settings: 2.5 h; dosed: 76231-76-0; 3.0 mg/kg; iv; Female; F344
[13] = test system: Rat; assay: concentration in plasma after dosing; settings: 3 h; dosed: alpha-Thujone; 25 mg/kg; oral; Male; Harlan Sprague Dawley
[14] = test system: Rat; assay: concentration in brain after dosing; settings: 3 h; dosed: alpha-Thujone; 25 mg/kg; oral; Male; Harlan Sprague Dawley
[15] = test system: Rat; assay: concentration in brain after dosing; settings: 1.5 h; dosed: alpha-Thujone; 25 mg/kg; oral; Male; Harlan Sprague Dawley
[16] = test system: Rat; assay: concentration in brain after dosing; settings: 1.5 h; dosed: alpha-Thujone; 25 mg/kg; oral; Male; Harlan Sprague Dawley; remark: listed apart in the source
[17] = test system: Rat; assay: concentration in brain after dosing; settings: 10 min; dosed: alpha-Thujone; 25 mg/kg; oral; Male; Harlan Sprague Dawley
[18] = test system: Rat; assay: concentration in plasma after dosing; settings: 1.5 h; dosed: alpha-Thujone; 25 mg/kg; oral; Male; Harlan Sprague Dawley
[19] = test system: Rat; assay: concentration in plasma after dosing; settings: 1.5 h; dosed: alpha-Thujone; 25 mg/kg; oral; Male; Harlan Sprague Dawley; remark: listed apart in the source
[20] = test system: Rat; assay: concentration in brain after dosing; settings: 2 min; dosed: alpha-Thujone; 25 mg/kg; oral; Female; Harlan Sprague Dawley
[21] = test system: Rat; assay: concentration in plasma after dosing; settings: 2 min; dosed: alpha-Thujone; 50 mg/kg; oral; Female; Harlan Sprague Dawley
[22] = test system: Rat; assay: concentration in kidney after dosing; settings: 192 h; dosed: Perfluorohexane-1-sulphonic acid – potassium salt; 16 mg/kg; oral; Female; Harlan Sprague Dawley
[23] = test system: Rat; assay: concentration in liver after dosing; settings: 6 h; dosed: Perfluorohexane-1-sulphonic acid – potassium salt; 16 mg/kg; oral; Female; F344
[24] = test system: Rat; assay: concentration in kidney after dosing; settings: 24 h; dosed: Perfluorohexane-1-sulphonic acid – potassium salt; 16 mg/kg; oral; Female; F344
[25] = test system: Rat; assay: concentration in plasma after dosing; settings: dosed: Pyridine, 25 mg/kg, oral, Female, Harlan Sprague-Dawley
[26] = test system: Rat; assay: concentration in plasma after dosing; settings: dosed: Pyridine, 5 mg/kg, iv, Male, F344
[27] = test system: Rat; assay: concentration in plasma after dosing; settings: dosed: Pyridine, 25 mg/kg, oral, Male, F344
[28] = test system: Rat; assay: concentration in plasma after dosing; settings: 50 min; dosed: Pyridine; 10 mg/kg; iv; Male; F344
[29] = test system: Rat; assay: concentration in plasma after dosing; settings: dosed: Methyleugenol, 37 mg/kg, oral, Male, F344/N
[30] = test system: Rat; assay: concentration in plasma after dosing; settings: dosed: Methyleugenol, 37 mg/kg, oral, Female, F344/N
[31] = test system: Rat; assay: concentration in plasma after dosing; settings: dosed: Methyleugenol, 37 mg/kg, iv, Male, F344

O=C(c1ccccc1)c1ccc(O)cc1O [2,4-Dihydroxybenzophenone]
Settings | concentration in plasma [ng/mL]
[1] | 781
[2] | 338
[3] | 217
[4] | 392
[5] | 2990

[6]
Settings | concentration in plasma [ng/mL]
10 h | 206
10 min | 116

concentration in plasma [ng/mL], [7], dosed: 2-Hydroxy-4-methoxybenzophenone
Settings | 0.25 h | 2 h | 2.5 min | 3 h | 10 min
50 mg/kg, iv, Female | 800 | 44.6 | – | 63.1 | 1700
50 mg/kg, iv, Male | 1440 | 230 | – | 70.5 | 3710
100 mg/kg, oral, Female | 721 | 61.9 | 44 | 50.2 | 383
100 mg/kg, oral, Male | 171 | 320 | 120 | 109 | 195
250 mg/kg, oral, Female | 1340 | 185 | 71.2 | 120 | 1840
250 mg/kg, oral, Male | 988 | 338 | 115 | 265 | 542
500 mg/kg, oral, Female | 3280 | 309 | – | – | 2800
500 mg/kg, oral, Male | 1510 | 282 | – | – | 1110

O=C(O)COc1ccc(Cl)cc1Cl [2,4-Dichlorophenoxyacetic acid]
concentration in plasma [ng/mL], [7], dosed: 2,4-Dichlorophenoxyacetic acid, Male
Settings | 1.0 mg/kg | 2.0 mg/kg | 5.2 mg/kg
0.25 h, iv | 6980 | – | –
0.25 h, oral | 1210 | 5300 | 16000
0.5 h, oral | 3030 | 3480 | 16800
1 h, iv | 2730 | – | –
2 h, oral | 486 | 2900 | 16000
2.5 h, iv | 951 | – | –
2.5 min, iv | 7580 | – | –
2.5 min, oral | 2070 | 3200 | –
3 h, oral | 470 | 1950 | 12800
4 h, iv | 1200 | – | –
4 h, oral | 164 | – | 6840
5 min, iv | 7190 | – | –
5 min, oral | 3130 | 5970 | 11300
6 h, iv | 235 | – | –
6 h, oral | 123 | 390 | 1250
8 h, oral | 120 | – | –
10 h, oral | – | – | 459
10 min, iv | 7290 | – | –
10 min, oral | 1360 | 5500 | –

[8]
Settings | concentration in plasma [ng/mL]
0.25 h | 14100
0.5 h | 9550
0.75 h | 5750
2 h | 2070
2.5 min | 28500
3 h | 419
3.5 h | 410
10 min | 10400

CC(C)[C@]12CC(=O)[C@H](C)[C@H]1C2 [alpha-Thujone]
Settings | concentration in brain [ng/g] | concentration in plasma [ng/mL]
[9] | 105 | –
[10] | 1360 | –
[11] | – | 28.6
[12] | 19.8 | –
[13] | – | 131
[14] | 130 | –
[15] | 388 | –
[16] | 359 | –
[17] | 765 | –
[18] | – | 240
[19] | – | 186
[20] | 36.5 | –
[21] | – | 33.6

O=S(=O)([O-])C(F)(F)C(F)(F)C(F)(F)C(F)(F)C(F)(F)C(F)(F)F.[K+] [Perfluorohexane-1-sulphonic acid – potassium salt]
Settings | concentration in kidney [ng/g] | concentration in liver [ng/g]
[22] | 1650 | –
[23] | – | 87400
[24] | 28100 | –

c1ccncc1 [Pyridine]
concentration in plasma [ng/mL]
Settings | 0.5 h | 1 h | 6 h | 8 h
[25] | – | 21400 | – | 15200
[26] | 3400 | – | – | 874
[27] | 15300 | – | 15100 | –

Settings | concentration in plasma [ng/mL]
[28] | 4150

C=CCc1ccc(OC)c(OC)c1 [Methyleugenol]
Settings | concentration in plasma [ng/mL]
[29], 1.5 h | 148
[29], 8 h | 8.19
[30], 6 h | 6.14
[30], 10 min | 424
[31], 2 min | 59100
[31], 6 h | 114
